Test results reported in patent publication US5412123A, “Anthraquinone and anthracene derivatives as inhibitors of the cell-adhesion molecules of the immune system” (Glycomed Incorporated, priority 1993, dated 1995).

Tests used:
E-selectin = test: Inhibition of E-selectin IgG chimera binding to sLex on microtiter wells; details: FIG. 6; E-selectin 50 ng/ml; sennoside B from 2 mM, serial 1/2 dilutions; sLex 25 pm/well
Procedure: (§1) The capacity of the multivalent anthraquinone derivative, Sennoside B, to inhibit selectin binding to sLex was tested essentially as described by Foxall, C., et al J. Cell Biol., vol. 117, pages 895-902 (1992) using selectin IgG chimeras.
(§2) The following assay procedure was used. sLex at 25 pm/well was evaporated onto microtiter wells in MeOH and H2 O overnight. The plates were washed with H2 O and blocked with 5% BSA in PBS with 1 mM Ca for 1 hour. L-selectin was diluted to 35 ng/ml in 1% BSA PBS with 1 mM Ca and 1:1500 biotinylated goat F(ab') anti-human IgG Fc (CalTag, corp.) and streptavidin-alkaline phosphatase. E-selectin at 50 ng/ml and P-selectin at 750 ng/ml were similarly diluted with 1:1000 dilutions of biotinylated goat F(ab') anti-human IgG Fc and streptavidin-alkaline phosphatase. These were allowed to complex for 15 minutes at 37° C.
(§3) Part of each selectin solution was made 2 mM with sennoside B (obtained from Pfaltz and Bauer, Inc., Waterbury, Conn.) The most concentrated solutions were diluted with the selectin solution to yield 3 solutions each 1/2 as concentrated as the previous. The solutions with selectin and inhibitor were incubated for 45 minutes at 37° C. […]
(§4) Binding is expressed as "% of No Addition Control." That is, in some wells, no inhibitor was present, and the binding in these wells represents the maximum (100%) binding.

P-selectin = test: Inhibition of P-selectin IgG chimera binding to sLex on microtiter wells; details: FIG. 8; P-selectin 750 ng/ml; sennoside B from 2 mM, serial 1/2 dilutions; sLex 25 pm/well
Procedure: as §1, §2, §3, §4

L-selectin = test: Inhibition of L-selectin IgG chimera binding to sLex on microtiter wells; details: FIG. 7; L-selectin 35 ng/ml; sennoside B from 2 mM, serial 1/2 dilutions; sLex 25 pm/well
Procedure: as §1, §2, §3, §4

O=C(O)c1cc(O)c2c(c1)[C@@H]([C@H]1c3cc(C(=O)O)cc(O)c3C(=O)c3c(O[C@@H]4O[C@H](CO)[C@@H](O)[C@H](O)[C@H]4O)cccc31)c1cccc(O[C@@H]3O[C@H](CO)[C@@H](O)[C@H](O)[C@H]3O)c1C2=O [Sennoside B]
E-selectin binding to sLex (expressed as % of No Addition Control) (E-selectin): inhibited | P-selectin binding to sLex (expressed as % of No Addition Control) (P-selectin): most inhibited | L-selectin binding to sLex (expressed as % of No Addition Control) (L-selectin): inhibited
